Source: patent US5167824A, “Separation by carrier mediated transport” (priority 1990, dated 1992)
Like-named read-outs stand apart in the source and are kept apart here.

Key:
BABS = experiment: Radioimmunoassay, inhibition of 125I-digoxin binding to BABS by cardiac glycosides; parameters: species or system murine
Description: (§1) After the plates were washed and blocked with 1% horse serum in PBSA, solutions ([…]) containing 26-10 Fab or the BABS in either PBSA or 0.01 M sodium acetate at pH 5.5 were added to the wells and incubated 2-3 hrs at room temperature.

26-10 Fab = type: binding, murine
Description: as §1

[1] = tested on: biosynthetic protein (FB-sFv 26-10); experiment: Inhibition of 125I-dig-lysine binding by unlabelled cardiac glycosides; parameters: species or system murine; settings: unlabelled glycoside; compared with parent 26-10 Fab
Text: Properties of the binding site were probed by a modification of an assay developed by Mudgett-Hunter et al. (J. Immunol. (1982) 129:1165-1172; Molec. Immunol. (1985) 22:477-488), so that it could be run on microtiter plates as a solid phase sandwich assay. Binding data were collected using goat anti-murine Fab antisera (gAmFab) as the primary antibody that initially coats the wells of the plate. These are polyclonal antisera which recognize epitopes that appear to reside mostly on framework regions.
These are polyclonal antisera which recognize epitopes that appear to reside mostly on framework regions.

[2] = organic solvents such as toluene; cited from earlier work
[3] = Partition coefficient of oleandrin; type: physicochemical; settings: 1-octanol and water; read-out: aqueous to organic coefficient S
[4] = 1-octanol and water; cited from earlier work
[5] = Oleandrin transport through supported liquid membrane without binding protein; settings: absence of binding protein
Text: (§2) A hollow fiber device was constructed using 100×17.8 cm PAN fibers, produced by Sepracor, Inc., Marlborough, Mass. Each PAN fiber is a tubular membrane having a wall thickness of 50 μm and an internal diameter of 205 μm. Thus, this device contains a geometric surface area of 115 cm^2 of PAN fiber. The associated fluid handling equipment comprised two peristaltic pumps, one for the shell loop and one for the luman loop, a pressure gauge on the shell loop for determining the pressure drop from the shell side to the lumen side, and a throttling valve for creating a positive pressure on the shell side.
The device was first washed with 1 L of water. This washing involved convecting water through the lumen, through the shell, and through the PAN fibers from shell-side to lumen.
Following the washing procedure, the liquid membrane was put in place. A buffer solution of the same composition as that in which the FB-sFv protein was dissolved (50 mM sodium chloride) was pumped through the fibers, from the shell-side to the lumen. Approximately 100 mls of buffer solution were convected through the fibers. […]
Oleandrin is a cardiac glycoside having a molecular weight of 576, and an organic to aqueous partition coefficient between 1-octanol and water of 338 (Cohnen et al, Drug Res. 28 (II), Heft 12, 1978). […] The quantity of oleandrin contained in each lumen reservoir sample was determined by HPLC.

FB-sFv 26-10 = experiment: Oleandrin facilitated transport through supported liquid membrane containing FB-sFv 26-10; parameters: species or system murine
Text: as §2
The fluid loops were then drained. 100 mls of buffer containing 10.0 mgs of FB-sFv 26-10 produced as disclosed above were then slowly ultrafiltered from the shell loop at a pressure of 10 psi. […] After this time, no bulk fluid, either aqueous or organic, was present in either loop. […] Since an optical density of 1.0 at 280 nm indicates a protein concentration of 1.0 mg/ml, the filtrate contained 4.0 mgs protein. 6.0 mgs of FB-sFv 26-10 were therefore assumed to be contained in the supported liquid membrane.
Octanol saturated with buffer, but not containing oleandrin, was then convected through each loop, with the 10 psi pressure differential across the supported liquid membrane. Once uninterrupted convection through each loop was established, the shell loop reservoir was replaced with a reservoir containing 500 mls of octanol saturated with buffer, and containing 2.0 mg/ml oleandrin. The lumen reservoir was replaced with a reservoir containing 50 mls of buffer saturated octanol, containing no oleandrin. Over a 24 hour period, no convective flow of octanol through the supported liquid membrane occurred.
During this period, successive 1 ml samples of the lumen reservoir were taken. In order not to disturb the volume of the lumen reservoir, the octanol taken in each sample was replaced with 1 ml of buffer saturated octanol after drawing each sample. The quantity of oleandrin contained in each lumen reservoir sample was determined by HPLC.

[6] = normalizing glycoside digoxigenin

Compound | normalized concentration of inhibitor giving 50% inhibition of 125I-digoxin binding (BABS; [6]) | normalized concentration of inhibitor giving 50% inhibition of 125I-digoxin binding (BABS; normalizing glycoside digoxin) | normalized concentration of inhibitor giving 50% inhibition of 125I-digoxin binding (26-10 Fab; [6]) | normalized concentration of inhibitor giving 50% inhibition of 125I-digoxin binding (26-10 Fab; normalizing glycoside digoxin) | inhibition of binding of 125I-dig-lysine [1] | solubility in organic solvents [2] | aqueous to organic partition coefficient [3] | organic to aqueous partition coefficient [4] | first order polynomial (slope) of change in oleandrin concentration [5] [mg/mL/h] | initial flux of oleandrin (FB-sFv 26-10; BABS-containing membrane) | average flux of oleandrin (FB-sFv 26-10; BABS-containing membrane, 24-hour) | first order polynomial (slope) of change in oleandrin concentration (FB-sFv 26-10; presence of binding protein, time zero) [mg/mL/h] | initial increase of oleandrin flux (FB-sFv 26-10; with vs without 26-10 protein) [fold]
C[C@H]1O[C@@H](O[C@H]2[C@@H](O)C[C@H](O[C@H]3[C@@H](O)C[C@H](O[C@H]4CC[C@@]5(C)[C@H](CC[C@@H]6[C@@H]5CC[C@]5(C)[C@@H](C7=CC(=O)OC7)CC[C@]65O)C4)O[C@@H]3C)O[C@@H]2C)C[C@H](O)[C@@H]1O [Digitoxin, digitoxin] | 0.3 | 2.0 | 0.8 | 0.9 | can be inhibited |  |  |  |  |  |  |  | 
C[C@H]1O[C@@H](O[C@H]2[C@@H](O)C[C@H](O[C@H]3[C@@H](O)C[C@H](O[C@H]4CC[C@@]5(C)[C@H](CC[C@@H]6[C@@H]5CC[C@]5(C)[C@@H](C7=CC(=O)OC7)[C@@H](O)C[C@]65O)C4)O[C@@H]3C)O[C@@H]2C)C[C@H](O)[C@@H]1O [Gitoxin, gitoxin] | 8.5 | 62 | 8.1 | 9.6 | can be inhibited |  |  |  |  |  |  |  | 
C[C@]12CC[C@H](O)C[C@H]1CC[C@@H]1[C@@H]2CC[C@]2(C)[C@@H](C3=CC(=O)OC3)CC[C@]12O [Digitoxigenin, digitoxigenin] | 0.4 | 2.6 | 0.9 | 1.0 | can be inhibited |  |  |  |  |  |  |  | 
CC(=O)OC1CCC2(C=O)C3CCC4(C)C(C5=CC(=O)OC5)CCC4(O)C3CCC2(O)C1 (centres unmarked) [Acetyl Strophanthidin, acetyl strophanthidin] | 0.8 | 5.9 | 1.1 | 1.3 | can be inhibited |  |  |  |  |  |  |  | 
C[C@]12CC[C@H](O)C[C@H]1CC[C@@H]1[C@@H]2C[C@@H](O)[C@]2(C)[C@@H](C3=CC(=O)OC3)CC[C@]12O [Digoxigenin, digoxigenin] | 1.0 | 7.3 | 1.0 | 1.2 | can be inhibited |  |  |  |  |  |  |  | 
CCOC(=O)C(C)c1ccc2cc(OC)ccc2c1 (racemic) [racemic ethyl ester of naproxen, ethyl ester of naproxen] |  |  |  |  |  | to the extent of moles per liter |  |  |  |  |  |  | 
C[C@@H]1O[C@@H](O[C@H]2C[C@@H](O)[C@]3(CO)[C@H]4[C@H](O)C[C@]5(C)[C@@H](C6=CC(=O)OC6)CC[C@]5(O)[C@@H]4CC[C@]3(O)C2)[C@H](O)[C@H](O)[C@H]1O [Ouabain, ouabain] | 21 | 150 | 13 | 15 | can be inhibited |  |  |  |  |  |  |  | 
C[C@H]1O[C@@H](O[C@H]2[C@@H](O)C[C@H](O[C@H]3[C@@H](O)C[C@H](O[C@H]4CC[C@@]5(C)[C@H](CC[C@@H]6[C@@H]5C[C@@H](O)[C@]5(C)[C@@H](C7=CC(=O)OC7)CC[C@]65O)C4)O[C@@H]3C)O[C@@H]2C)C[C@H](O)[C@@H]1O [Digoxin, digoxin] | 0.1 | 1.0 | 0.9 | 1.0 | can be inhibited |  |  |  |  |  |  |  | 
CO[C@H]1C[C@H](O[C@H]2CC[C@@]3(C)[C@H](CC[C@@H]4[C@@H]3CC[C@]3(C)[C@@H](C5=CC(=O)OC5)[C@@H](OC(C)=O)C[C@]43O)C2)O[C@@H](C)[C@@H]1O [Oleandrin, oleandrin] |  |  |  |  | can be inhibited |  | ~0.003 | 338 | 0.0023 | 4.9×10^-12 gmole/sec-cm^2 | 2.9×10^-12 gmole/sec-cm^2 | 0.0215 | 9.3
